{
  "source": "paper PMC12029069",
  "about": "“Synthesis and Evaluation of Antitumor and Anti-Angiogenesis Activity of Pyrone- or Pyridone-Embedded Analogs of Cortistatin A” (Marine Drugs, 2025)",
  "key": {"[1]": {"system": "human epidermoid carcinoma KB3-1 cells", "conditions": "cited from earlier work"}, "[2]": {"system": "HUVECs", "conditions": "cited from earlier work; for S.I. (selective index: IC50 against KB3-1 cells/IC50 against HUVECs): KB3-1 over HUVECs"}, "[3]": {"system": "human epidermoid carcinoma KB3-1 cells", "assay": "Antiproliferative activity against KB3-1 cancer cells (WST-8, 72 h)", "type": "cell-based", "description": "KB3-1 cells were cultured in RPMI-1640 medium supplemented with 10% heat-inactivated fetal bovine serum and kanamycin (50 μg/mL). Cells were plated into 96-well microplates at 2 × 10^3 cells/100 μL assay medium/well, and various concentrations of test compounds were added to each well as a 5% DMSO/EtOH or EtOH solution (1 µL). The plates were incubated at 37 °C in a humidified atmosphere of 5% CO2 for 72 h, and cell proliferation was determined by WST-8 colorimetric assay as above, and the averaged IC50 values of the triplicate experiment are shown in Table 1."}, "[4]": {"system": "HUVECs", "assay": "Antiproliferative activity against HUVECs (WST-8, 72 h)", "type": "cell-based, human", "conditions": "for IC50: 72 h, WST-8, average of triplicate; for S.I. (selective index: IC50 against KB3-1 cells/IC50 against HUVECs): KB3-1 over HUVECs", "description": "HUVECs (5 × 10^5 cells/vial) were purchased from Kurabo Inc. and grown in HuMedia-EG2 medium with growth supplements (Kurabo, Osaka, Japan). HUVECs in the culture medium were plated into each well of 96-well plates (2 × 10^3 cells/well/100 µL). After 24 h, the serially diluted compounds as a 5% DMSO/EtOH or EtOH solution (1 µL) were added, and then the plates were incubated for an additional 72 h in a humidified atmosphere of 5% CO2 at 37 °C. The cell proliferation was detected by WST-8 colorimetric reagent (Nacalai Tesque, Inc., Kyoto, Japan). The IC50 value was determined by linear interpolation from the growth inhibition curve, and the averaged IC50 values of the triplicate experiment are shown in Table 1."}, "[5]": {"assay": "Hepatic toxicity: AST and ALT activities in mouse serum", "type": "in vivo, mice", "conditions": "1 mg/kg oral treatment group, day 9", "description": "The body weight of mice of the control group (bFGF (+) or (−)) and the groups treated with the testing compound (0.1, 0.3, and 1 mg/kg) at day 1 and day 9 were measured. […]"}, "[6]": {"system": "Murine sarcoma S180 cells", "assay": "In vivo antitumor effect in mice inoculated with sarcoma S180 cells", "conditions": "every other day for 14 days, S180 s.c. in ddY mice", "source_text": "Murine sarcoma S180 cells (1 × 10^6 cells/body) were implanted subcutaneously into the right ventral flank of female ddY mice (6 weeks old). After one week from implantation, analog 19 was orally administered on every other day for 14 days (total 7 times) as a suspension in 1% CMC-Na. Then, the tumor was isolated and weighed to calculate the inhibition ratio. The control group and the group treated with the testing compound consisted of six mice each in this study."}, "[7]": {"assay": "Body weight of mice during the Matrigel plug assay (acute toxicity)", "type": "in vivo", "conditions": "mean ± SD", "description": "The body weight of mice of the control group (bFGF (+) or (−)) and the groups treated with the testing compound (0.1, 0.3, and 1 mg/kg) at day 1 and day 9 were measured. The mean activities of aspartate aminotransferase (AST) and alanine aminotransferase (ALT) in mouse serum at day 10 of control group and the 1 mg/kg treated group were measured using the LabAssay^TM AST or ALT kit (FUJIFILM Wako Pure Chemical Co., Osaka, Japan), respectively."}, "[8]": {"system": "new blood vessels in the Matrigel plug induced by bFGF", "assay": "In vivo Matrigel plug assay (bFGF-induced angiogenesis, hemoglobin content)", "set-up": "species or system mice", "conditions": "0.3 mg/kg oral, every other day (5 times), day 10, mean ± SD", "description": "All animal procedures were approved by the Committee on Animal Experimentation of Osaka University (Approval number: DouYaku 24-8-1). The measurements of in vivo angiogenesis using Matrigel plugs were performed as described previously. An aliquot (250 µL) of Matrigel containing 200 ng/mL of bFGF and 100 U/mL of heparin was injected subcutaneously into the ventral side of female ddY mice (6 weeks old, N = 4, Japan SLC, Inc., Shizuoka, Japan). Then, analog 19 was orally administered on every other day (total 5 times: day 1, 3, 5, 7, and 9) as a suspension in 1% sodium carboxymethyl cellulose (CMC-Na). At day 10, the Matrigel plugs were photographed and removed. The levels of new vessels were quantified by measuring the hemoglobin of the Matrigel plug (µg hemoglobin/mg Matrigel) with the Drabkin reagent Kit."}, "[9]": {"system": "CDK8", "conditions": "ref [37]; cited from earlier work"}, "[10]": {"conditions": "Homo sapiens, KB 3-1, WST-8, average of triplicate"}},
  "note": "Where two headings read alike, the source gives them in different places. Marks after values point to notes of the source that are not given here.",
  "data": [
    {"molecule": "C[C@]12CCC3=CC4=C(CCCC4=O)O[C@H]3[C@@H]1CC[C@@H]2c1ccc2ccncc2c1", "note": "[Compound 2]", "values": [
      {"measurement": "IC50", "setting": "[1]; reported value ref [21]", "result": 10500, "unit": "nM"},
      {"measurement": "S.I. (selective index: IC50 against KB3-1 cells/IC50 against HUVECs)", "setting": "[2]; ref [21]", "result": "300 ^c"},
      {"measurement": "IC50", "setting": "[2]; reported value ref [21]", "result": 35, "unit": "nM"}
    ]},
    {"molecule": "CC(=O)NCC1CC(=O)C2=C(C1)O[C@@H]1C(=C2)CC[C@]2(C)[C@@H](c3ccc4ccncc4c3)CC[C@@H]12", "note": "(stereo partly shown) [Compound 3]", "values": [
      {"measurement": "IC50", "setting": "[1]; reported value ref [21]", "result": 8200, "unit": "nM"},
      {"measurement": "S.I. (selective index: IC50 against KB3-1 cells/IC50 against HUVECs)", "setting": "[2]; ref [21]", "result": "3150 ^c"},
      {"measurement": "IC50", "setting": "[2]; reported value ref [21]", "result": 2.6, "unit": "nM"}
    ]},
    {"molecule": "Cc1cc2c(c(=O)o1)C=C1CC[C@]3(C)[C@@H](c4ccc5ccncc5c4)CC[C@H]3[C@@H]1O2", "note": "[Compound 7, (3S,3aR,11aS,11bR)-3-(Isoquinolin-7-yl)-3a,9-dimethyl-1,2,3,3a,4,5,11a,11b-octahydro-7H-cyclopenta[h]pyrano[4,3-b]chromen-7-one]", "values": [
      {"measurement": "IC50", "setting": "[3]; [10]", "result": 62800, "unit": "nM"},
      {"measurement": "IC50", "setting": "[4]; Homo sapiens, HUVEC", "result": 90, "unit": "nM"},
      {"measurement": "S.I. (selective index: IC50 against KB3-1 cells/IC50 against HUVECs)", "setting": "[4]", "result": 700}
    ]},
    {"molecule": "Cc1oc(=O)c2c(c1CO)O[C@@H]1C(=C2)CC[C@]2(C)[C@@H](c3ccc4ccncc4c3)CC[C@@H]12", "note": "[Compound 11, (3S,3aR,11aS,11bR)-10-(Hydroxymethyl)-3-(isoquinolin-7-yl)-3a,9-dimethyl-1,2,3,3a,4,5,11a,11b-octahydro-7H-cyclopenta[h]pyrano[4,3-b]chromen-7-one]", "values": [
      {"measurement": "IC50", "setting": "[3]; [10]", "result": 10000, "unit": "nM"},
      {"measurement": "IC50", "setting": "[4]; Homo sapiens, HUVEC", "result": 20, "unit": "nM"},
      {"measurement": "S.I. (selective index: IC50 against KB3-1 cells/IC50 against HUVECs)", "setting": "[4]", "result": 500}
    ]},
    {"molecule": "C[C@]12CCC3=Cc4c(cc[nH]c4=O)O[C@H]3[C@@H]1CC[C@@H]2c1ccc2ccncc2c1", "note": "[Compound 13, (3S,3aR,11aS,11bR)-3-(Isoquinolin-7-yl)-3a-methyl-2,3,3a,4,5,8,11a,11b-octahydrocyclopenta[7, 8]chromeno[3,2-c]pyridin-7(1H)-one]", "values": [
      {"measurement": "IC50", "setting": "[3]; [10]", "result": 11000, "unit": "nM"},
      {"measurement": "IC50", "setting": "[4]; Homo sapiens, HUVEC", "result": 10, "unit": "nM"},
      {"measurement": "S.I. (selective index: IC50 against KB3-1 cells/IC50 against HUVECs)", "setting": "[4]", "result": 1100},
      {"measurement": "fold higher potency than 7 against HUVECs", "setting": "[4]; relative to analog 7", "result": 9, "unit": "fold"}
    ]},
    {"molecule": "Cn1ccc2c(c1=O)C=C1CC[C@]3(C)[C@@H](c4ccc5ccncc5c4)CC[C@H]3[C@@H]1O2", "note": "[Compound 15, (3S,3aR,11aS,11bR)-3-(Isoquinolin-7-yl)-3a,8-dimethyl-2,3,3a,4,5,8,11a,11b-octahydrocyclopenta[7, 8]chromeno[3,2-c]pyridin-7(1H)-one]", "values": [
      {"measurement": "IC50", "setting": "[3]; [10]", "result": 8600, "unit": "nM"},
      {"measurement": "IC50", "setting": "[4]; Homo sapiens, HUVEC", "result": 3, "unit": "nM"},
      {"measurement": "S.I. (selective index: IC50 against KB3-1 cells/IC50 against HUVECs)", "setting": "[4]", "result": 2870},
      {"measurement": "fold potency over 13 against HUVECs", "setting": "[4]; relative to analog 13", "result": 3.3, "unit": "fold"}
    ]},
    {"molecule": "Cn1cc(CO)c2c(c1=O)C=C1CC[C@]3(C)[C@@H](c4ccc5ccncc5c4)CC[C@H]3[C@@H]1O2", "note": "[Compound 19, (3S,3aR,11aS,11bR)-10-(Hydroxymethyl)-3-(isoquinolin-7-yl)-3a,8-dimethyl-2,3,3a,4,5,8,11a,11b-octahydrocyclopenta[7, 8]chromeno[3,2-c]pyridin-7(1H)-one]", "values": [
      {"measurement": "IC50", "setting": "[3]; WST-8, average of triplicate", "result": 6400, "unit": "nM"},
      {"measurement": "ALT (alanine aminotransferase activity)", "setting": "[5]", "result": "48.4 ± 3.3", "unit": "IU/L"},
      {"measurement": "AST (aspartate aminotransferase activity)", "setting": "[5]", "result": "57.8 ± 4.5", "unit": "IU/L"},
      {"measurement": "IC50", "setting": "[4]", "result": 1, "unit": "nM"},
      {"measurement": "S.I. (selective index: IC50 against KB3-1 cells/IC50 against HUVECs)", "setting": "[4]", "result": 6400},
      {"measurement": "tumor growth inhibition, reduction compared to the control group", "setting": "[6]; 0.1 mg/kg oral", "result": "~ 75%"},
      {"measurement": "tumor weight reduction", "setting": "[6]; 1 mg/kg oral", "result": "more than 85%"},
      {"measurement": "Body Weight Day 1", "setting": "[7]; 0.1 mg/kg oral", "result": "25.70 ± 0.58", "unit": "g"},
      {"measurement": "Body Weight Day 9", "setting": "[7]; 0.1 mg/kg oral", "result": "26.12 ± 0.58", "unit": "g"},
      {"measurement": "Body Weight Day 1", "setting": "[7]; 0.3 mg/kg oral", "result": "25.60 ± 0.64", "unit": "g"},
      {"measurement": "Body Weight Day 9", "setting": "[7]; 0.3 mg/kg oral", "result": "26.14 ± 0.62", "unit": "g"},
      {"measurement": "Body Weight Day 1", "setting": "[7]; 1.0 mg/kg oral", "result": "26.30 ± 0.41", "unit": "g"},
      {"measurement": "Hb Content (hemoglobin µg/isolated Matrigel mg)", "setting": "[8]", "result": "2.42 ± 0.79", "unit": "µg/mg"}
    ]},
    {"molecule": "CC(=O)NCc1c2c(c(=O)n(C)c1C)C=C1CC[C@]3(C)[C@@H](c4ccc5ccncc5c4)CC[C@H]3[C@@H]1O2", "note": "[Compound 27, N-(((3S,3aR,11aS,11bR)-3-(Isoquinolin-7-yl)-3a,8,9-trimethyl-7-oxo-1,2,3,3a,4,5,7,8,11a,11b-decahydrocyclopenta[7, 8]chromeno[3,2-c]pyridin-10-yl)methyl)acetamide]", "values": [
      {"measurement": "IC50", "setting": "[3]; WST-8, average of triplicate", "result": 13400, "unit": "nM"},
      {"measurement": "IC50", "setting": "[4]", "result": 10, "unit": "nM"},
      {"measurement": "S.I. (selective index: IC50 against KB3-1 cells/IC50 against HUVECs)", "setting": "[4]", "result": 1340}
    ]},
    {"molecule": "CN(C)[C@H]1CC[C@@]2(C)[C@@H](CC[C@@H]3[C@@H]2CC[C@]2(C)[C@@H](c4ccc5ccncc5c4)CC[C@@H]32)C1", "note": "[Compound 28, reference compound]", "values": [
      {"measurement": "IC50", "setting": "[3]; [10]", "result": 4800, "unit": "nM"},
      {"measurement": "IC50", "setting": "[4]; Homo sapiens, HUVEC", "result": 560, "unit": "nM"},
      {"measurement": "S.I. (selective index: IC50 against KB3-1 cells/IC50 against HUVECs)", "setting": "[4]", "result": 8.6},
      {"measurement": "IC50", "setting": "[9]", "result": 24, "unit": "nM"}
    ]},
    {"molecule": "Cortistatin A [Compound 1]", "values": [
      {"measurement": "IC50", "setting": "[1]; reported value ref [8]", "result": 7000, "unit": "nM"},
      {"measurement": "S.I. (selective index: IC50 against KB3-1 cells/IC50 against HUVECs)", "setting": "[2]; ref [8]", "result": "3900 ^b"},
      {"measurement": "IC50", "setting": "[2]; reported value ref [8]", "result": 1.8, "unit": "nM"}
    ]}
  ]
}
